In ChEMBL document CHEMBL1142599, “Biocatalytic and antimetastatic studies of the marine cembranoids sarcophine and 2-epi-16-deoxysarcophine” (J Nat Prod, 2006):

organism: Mus musculus; experiment: Inhibition of mouse B16B15b cell migration after 16 hrs by wound-healing assay; assay type: functional

Row | SMILES | Activity
1 | CC1=C2CC/C(C)=C/C[C@H](O)[C@]3(C)O[C@H]3CC/C(C)=C/[C@@H]2OC1=O | Dose-dependent effect
2 | CC1=C2[C@@H](O)C/C(C)=C/CC[C@]3(C)O[C@H]3CC/C(C)=C/[C@H]2OC1 | Dose-dependent effect
3 | CC1=C2CC/C(C)=C/C[C@H](O)[C@]3(C)O[C@H]3CC/C(C)=C/[C@H]2OC1 | Dose-dependent effect
4 | CC1=C2CC/C(C)=C/[C@@H](O)C[C@]3(C)O[C@H]3CC/C(C)=C/[C@H]2OC1 | Dose-dependent effect
5 | C/C1=C\[C@H]2OC[C@@]3(C)O[C@@]23CC/C(C)=C/CC[C@]2(C)O[C@H]2CC1 | Dose-dependent effect
6 | CC1=C2CC/C(C)=C/CC[C@]3(C)O[C@H]3CC/C(C)=C/[C@@H]2OC1=O | Dose-dependent effect
7 | CC1=C2CC/C(C)=C/CC[C@]3(C)O[C@H]3CC/C(C)=C/[C@H]2OC1 | Dose-dependent effect
